{
  "source": "patent US9822467B2",
  "about": "“Methods and systems relating to the selection of substrates comprising crystalline templates for the controlled crystallization of molecular species” (Massachusetts Institute of Technology, priority 2011, dated 2017)",
  "key": {"[1]": {"settings": "cited from earlier work; for Stability of the polymorph: ambient conditions / air"}, "[2]": {"assay": "Nucleation induction time of AAP from ethanol in the presence of crystalline substrates", "type": "physicochemical", "settings": "AAP Form I from ethanol; for Average induction times, τ: σ = 0.36, 15° C.; for Change in τ compared to bulk nucleation: σ = 0.36", "protocol": "1.5 mL aliquots of the stock solution were then syringe filtered into HPLC vials through a 0.2 μm nylon membrane in order to remove solid impurities. Crystallisations were carried out using a RS10 Clarity Solubility Station with non-intrusive infrared transmission probes and Integrity Client Software. The vials were initially held for 30 mins at 40° C. to ensure complete dissolution of AAP had occurred. After which they were cooled to 15° C. at a rate of 5° C./min and held at this temperature over a 24 hour period whilst the turbidity of the solution was monitored. Over the course of the experiments the stirring speed in each vial was held constant at 700 rpm. For those crystallizations requiring substrate, 3 mg was used. […] For each system studied 50 crystallisations were carried out to ensure a sufficient number of data points were obtained for statistical analysis.\nThe effectiveness of the five chosen substrates at promoting nucleation of AAP was measured by determining their effect on the nucleation induction time, τ. […] X-ray powder diffraction was used to confirm that it was the nucleation induction time of Form I being measured in all cases with any additional peaks in the diffraction patterns correspond to the substrates.\nThe percentage of vials crystallized as a function of time were plotted to give cumulative probability distributions of nucleation induction time for each system tested. […] It was assumed that nucleation follows a Poisson distribution (Equation 1). λ is the expected number of occurrences in the interval and k is the exact number of occurrences. If k=0 and […], then the probability of observing no nucleation events within a time, t, is given by equation 2 which is consistent with first order kinetic expressions previously used for studying nucleation events.\nUsing linear regression, plotting ln(P) against t (FIG. 10), the average induction times and associated errors were calculated (Table 3)."}, "[3]": {"assay": "Polymorph obtained on crystallization of AAP from ethanol with or without crystalline substrate (DSC, XRPD)", "type": "physicochemical", "settings": "supersaturation 0.49 with respect to Form I; for Polymorphic form of AAP crystallized in the presence of substrate: substrate seeds added, DSC/XRPD, label = substrate", "text": "Such an observation implies that for both polymorphs their nucleation rate constants follow the relationship kI>kII. It was hypothesized crystalline substrates would be able to selectively crystallize Form II if they fit the following two core criteria: 1) the unit cell parameters of the substrate were substantially similar to that of Form II and 2) the molecular functionality of the compound acting as the substrate is similar to that of AAP. By constraining the crystallographic properties of the substrate in this way, a three dimensional lattice match with Form II was targeted. Furthermore, selection of compounds with similar functionality as AAP was selected to stabilize the formation of a nucleus through favorable interactions such as hydrogen bonds.\nThe crystallizations of AAP from ethanol were then repeated in the presence of 50 mg of 4-APAA seeds, added after the desired supersaturation had been achieved. Once crystallization occurred, the crystals were filtered immediately and analyzed by DSC and x-ray powder diffraction. […] Furthermore no melting endotherm for Form I which is often observed in DSC traces of apparently pure Form II.\nA plot of dimensionless potential energy (V/V0) as a function of orientation angle (θ) for the interacting (001) faces of Form II acetaminophen and graphite was prepared. The EpiCalc calculation was performed using the following lattice values for the (001) faces of Form II acetaminophen and graphite: (001) Form II acetaminophen: a=17.1657 Å, b=11.7773 and Å and β=90° (001); graphite: a=b=2.456 Å and α=90°. The acetaminophen overlayer dimensions were 25×25 cells and the orientation angle range tested was 180° with a step size of 0.25°."}, "[4]": {"assay": "Polymorph obtained on crystallization of 3-ABSA from water with or without AMMP substrate (XRPD)"}, "[5]": {"settings": "3 mg substrate, 700 rpm, 50 crystallisations, label = substrate"}},
  "note": "Entries after “also recorded” stand apart in the source; their conditions may differ.",
  "data": [
    {"compound": "CC(=O)Nc1ccc(O)cc1", "note": "[AAP Form I, acetaminophen, reference compound]", "values": [
      {"measurement": "Stability of the polymorph", "setting": "[1]", "value": "thermodynamically stable phase under ambient conditions"},
      {"measurement": "Average induction times, τ", "setting": "[2]; bulk nucleation, no substrate", "value": "1930 ± 85", "unit": "min"}
    ]},
    {"compound": "OC[C@@H](O)[C@@H](O)[C@H](O)[C@H](O)CO", "note": "[D-mannitol]", "values": [
      {"measurement": "Polymorphic form of AAP crystallized in the presence of substrate", "setting": "[3]", "value": "Form I"},
      {"measurement": "Average induction times, τ", "setting": "[2]; [5]", "value": "390 ± 8", "unit": "min"},
      {"measurement": "Change in τ compared to bulk nucleation", "setting": "[2]; label = substrate", "value": "largest reduction in τ"}
    ]},
    {"compound": "Nc1ccc(CC(=O)O)cc1", "note": "[4-APAA, 4-aminophenylacetic acid]", "values": [
      {"measurement": "Polymorphic form of AAP crystallized in the presence of substrate", "setting": "[3]", "value": "Form II crystallized"}
    ]},
    {"compound": "[Cl-].[Na+]", "note": "[Sodium Chloride, sodium chloride]", "values": [
      {"measurement": "Polymorphic form of AAP crystallized in the presence of substrate", "setting": "[3]", "value": "Form I"}
    ]},
    {"compound": "COc1cc(C)nc(N)n1", "note": "[AMMP]", "values": [
      {"measurement": "Polymorphic form of 3-ABSA crystallized in the presence of substrate", "setting": "[4]; aqueous solution saturated at 50° C., cooled to 10° C., 50 mg AMMP seeds, label = substrate", "value": "Form I crystallized; also recorded: a mixture of Forms I and II was obtained"}
    ]},
    {"compound": "N[C@@H](Cc1c[nH]cn1)C(=O)O", "note": "[L-histidine]", "values": [
      {"measurement": "Average induction times, τ", "setting": "[2]; [5]", "value": "1910 ± 95", "unit": "min"},
      {"measurement": "Change in τ compared to bulk nucleation", "setting": "[2]; label = substrate", "value": "no measureable decrease in τ"}
    ]},
    {"compound": "CC(=O)Nc1ccc(O)cc1", "note": "[AAP Form III, acetaminophen]", "values": [
      {"measurement": "Stability of the polymorph", "setting": "[1]", "value": "highly unstable in air"}
    ]},
    {"compound": "CC(=O)Nc1ccc(O)cc1", "note": "[AAP Form II, acetaminophen]", "values": [
      {"measurement": "Time until Form I crystallizes via solvent mediated phase transformation when seeding with Form II", "setting": "[1]; in solution, seeded with Form II", "value": "≤ 15", "unit": "min"},
      {"measurement": "Temperature of solid state transformation to Form I", "setting": "[1]; solid state", "value": "Above 60 °C"}
    ]},
    {"compound": "CC(=O)Nc1ccc(O)cc1", "note": "[AAP, acetaminophen, reference compound]", "values": [
      {"measurement": "Polymorphic form of AAP crystallized without substrate", "setting": "[3]", "value": "only Form I was obtained"}
    ]},
    {"compound": "Nc1cccc(S(=O)(=O)O)c1", "note": "[3-ABSA Form II, 3-aminobenzenesulfonic acid]", "values": [
      {"measurement": "Stability of the polymorph", "setting": "[1]", "value": "thermodynamically most stable form under ambient conditions"}
    ]},
    {"compound": "Nc1cccc(S(=O)(=O)O)c1", "note": "[3-ABSA, 3-aminobenzenesulfonic acid]", "values": [
      {"measurement": "Polymorphic form of 3-ABSA crystallized without substrate", "setting": "[4]; aqueous solution, no substrate", "value": "only Form II was obtained; also recorded: Form II had crystallized"}
    ]},
    {"compound": "O.OC[C@H]1O[C@@H](O[C@H]2[C@H](O)[C@@H](O)[C@@H](O)O[C@@H]2CO)[C@H](O)[C@@H](O)[C@H]1O", "note": "[α-LMH, α-lactose monohydrate]", "values": [
      {"measurement": "Polymorphic form of AAP crystallized in the presence of substrate", "setting": "[3]", "value": "Form I"},
      {"measurement": "Average induction times, τ", "setting": "[2]; [5]", "value": "410 ± 11", "unit": "min"},
      {"measurement": "Change in τ compared to bulk nucleation", "setting": "[2]; label = substrate", "value": "largest reduction in τ"}
    ]}
  ]
}
